Like-named read-outs stand apart in the source and are kept apart here. Peptide text beside a SMILES is read from it. * marks the point of attachment. βNA = c1ccc2cc(N*)ccc2c1
Experiments:
Proteus IR strains = assay: Ertapenem E-test MIC, IR Proteus strains; format: cell-based, Proteus mirabilis; conditions: cloxacillin 200 mg/l and/or PAbetaN 25 mg/l, vs medium without either
Experimental: (§1) The effect of cloxacillin and PAbetaN on the MICs of the strains with ertapenem was evaluated firstly using E-test® strips in Mueller Hinton medium. […] The second test consisted in evaluating the impact of these 2 compounds on the MICs with ertapenem of 29 carbapenemases-producing strains (+1 ESBL).
(§2) Test B100904: the 19 impermeability-resistant (IR) strains belong to the following species: 10 Enterobacter aerogenes, 2 Enterobacter cloacae, 1 Citrobacter freundii, 1 Pseudomonas aeruginosa, 3 Proteus mirabilis and 2 Morganella morganii.
(§3) The E-tests were performed in Mueller-Hinton medium supplemented or not supplemented with cloxacillin and/or PAbetaN according to Table I:
(§4) 2. Test • Production for each strain of an approximately 0.5 McF suspension in a 0.85% NaCl ampule. • Seeding of the 4 media by semi-automatic swabbing. • Drying of the dishes at ambient temperature for 5 to 15 min. • Application of the ertapenem E-test® strip. • Incubation for 16 to 20 hours at 37° C.

Enterobacter IR strains = assay: Ertapenem E-test MIC, impermeability-resistant (IR) Enterobacter strains; format: cell-based, Enterobacter aerogenes, Enterobacter cloacae; conditions: for number of strains: >2 MIC steps impact on ertapenem MIC / number of strains: No impact on ertapenem MIC: Enterobacter IR strains, Mueller Hinton, cloxacillin 200 mg/l and/or PAbetaN 25 mg/l, vs medium without either; for MIC with ertapenem: E. aerogenes strain 9306074
Experimental: as §1, §2, §3, §4

[1] = system: carbapenemase-producing strains; format: cell-based
Experimental: as §1
(§5) Test B101001: twenty-nine carbapenemase-producing strains divided as follows: 27 Klebsiella pneumoniae strains producing class A KPC carbapenemase (KPC), and 2 strains respectively of Klebsiella pneumoniae and Citrobacter freundii which produce class-B carbapenemase (NDM-1). This test also comprised an ESBL Escherichia coli strain.
as §3, §4

Pseudomonas IR strain = assay: Ertapenem E-test MIC, IR Pseudomonas strain; format: cell-based, Pseudomonas aeruginosa
Experimental: as §1, §2, §3, §4

[2] = system: carbapenemase-producing strains; assay: Agar dilution growth on chromogenic media with faropenem, carbapenemase-producing strains; format: cell-based
Experimental: (§6) Seventy-seven strains of Gram-negative bacteria, of which 71 are enterobacteria and 6 non-enterobacteria (non-fermenting bacteria), whose resistance characteristics are set out in Table IV, were tested on media containing different concentrations of faropenem and cloxacillin, with or without PAbetaN, in order to establish the sensitivity and the specificity of each formulation. The tested media are described in Table V.
(§7) The chromogenic media are divided into 120×120 square dishes.
(§8) The seeding is performed from 24-h pre-cultures at 37° C. on trypcase soy agar. For each strain, a 0.5 McF suspension in physiological water is produced. Each suspension is spot-seeded (1 to 2 μL) on each medium with the aid of a multi-point inoculator according to the Agar Dilution (AD) method. Readings are performed after 24 hours of incubation at 37° C.
(§9) An absence of bacterial growth or a number of colonies which is less than or equal to 3 are considered as corresponding to a growth inhibition. The presence of 4 colonies or more is considered to be positive growth.

Morganella IR strains = assay: Ertapenem E-test MIC, IR Morganella strains; format: cell-based, Morganella morganii; conditions: cloxacillin 200 mg/l and/or PAbetaN 25 mg/l, vs medium without either
Experimental: as §1, §2, §3, §4

[3] = system: 19 impermeability-resistant (IR) strains; assay: Ertapenem E-test MIC, all 19 IR strains (TOTAL); format: cell-based; conditions: for number of strains: >2 MIC steps impact on ertapenem MIC / number of strains: No impact on ertapenem MIC / number of strains: ≦2 MIC steps impact on ertapenem MIC: TOTAL of 19 IR strains, cloxacillin 200 mg/l and/or PAbetaN 25 mg/l, vs medium without either
Experimental: as §1, §2, §3, §4

Citrobacter IR strain = assay: Ertapenem E-test MIC, IR Citrobacter strain; format: cell-based, Citrobacter freundii; conditions: cloxacillin 200 mg/l and/or PAbetaN 25 mg/l, vs medium without either
Experimental: as §1, §2, §3, §4

[4] = system: class-B carbapenemase (NDM-1) producing strains; assay: Ertapenem E-test MIC, NDM-1 strains; format: cell-based, Klebsiella pneumoniae, Citrobacter freundii; conditions: cloxacillin 200 mg/l and/or PAbetaN 25 mg/l, vs medium without either
Experimental: as §1, §5, §3, §4

[5] = system: class A KPC carbapenemase producing strains; assay: Ertapenem E-test MIC, KPC strains; format: cell-based, Klebsiella pneumoniae
Experimental: as §1, §5, §3, §4

19 IR strains = assay: Agar dilution growth on chromogenic media with faropenem, IR strains; format: cell-based; conditions: for additional IR strains inhibited: faropenem 16 mg/L
Experimental: as §6, §7, §8, §9

[6] = system: ESBL Escherichia coli strain; assay: Ertapenem E-test MIC, ESBL strain; format: cell-based; conditions: cloxacillin 200 mg/l and/or PAbetaN 25 mg/l, vs medium without either
Experimental: as §1, §5, §3, §4

[7] = TOTAL (ESBL+NDM+KPC), cloxacillin 200 mg/l and/or PAbetaN 25 mg/l, vs medium without either
[8] = Pseudomonas IR strain, cloxacillin 200 mg/l and/or PAbetaN 25 mg/l, vs medium without either
[9] = PAbetaN alone in Mueller Hinton
[10] = PAbetaN added to cloxacillin, against MICs with cloxacillin, 17 strains already decreased >2 steps by cloxacillin
[11] = KPC strains, cloxacillin 200 mg/l and/or PAbetaN 25 mg/l, vs medium without either

## Cc1onc(-c2ccccc2Cl)c1C(=O)N[C@@H]1C(=O)N2[C@@H]1SC(C)(C)[C@@H]2C(=O)O [CLX, cloxacillin]
Proteus IR strains
  number of strains: >2 MIC steps impact on ertapenem MIC: 3
Enterobacter IR strains; E. cloacae IR strain unimpacted by cloxacillin alone
  MIC with ertapenem in medium with the named additive: > 32 µg/mL
Enterobacter IR strains
  number of strains: >2 MIC steps impact on ertapenem MIC: 11
  number of strains: No impact on ertapenem MIC: 1
[1]; [7]
  number of strains: >2 MIC steps, positive MIC effect: 2
  number of strains: No impact on ertapenem MIC: 10
  number of strains: ≦2 MIC steps, negative MIC effect: 16
[1]; TOTAL (ESBL+NDM+KPC), cloxacillin 200 mg/l, vs medium without
  number of strains: >2 MIC steps, negative MIC effect: 1
[1]; cloxacillin
  number of carbapenemase-producing strains (NDM or KPC) with no impact on MIC with ertapenem: 9
  number of carbapenemase-producing strains with MIC slightly reduced: 16
Pseudomonas IR strain; [8]
  number of strains: ≦2 MIC steps impact on ertapenem MIC: 1
[2]; cloxacillin alone, at the 3 concentrations of faropenem tested
  impact on growth of carbapenemase-producing strains: little or no impact
Morganella IR strains
  number of strains: >2 MIC steps impact on ertapenem MIC: 2
[3]
  number of strains: >2 MIC steps impact on ertapenem MIC: 17
  number of strains: No impact on ertapenem MIC: 1
  number of strains: ≦2 MIC steps impact on ertapenem MIC: 1
[3]; cloxacillin added to Mueller Hinton medium
  IR strains whose MICs with ertapenem are reduced by more than 2 concentration steps: 16/19
Citrobacter IR strain
  number of strains: >2 MIC steps impact on ertapenem MIC: 1
[4]
  number of strains: No impact on ertapenem MIC: 2
[5]
  number of strains: >2 MIC steps, positive MIC effect: 2
  number of strains: No impact on ertapenem MIC: 7
  number of strains: ≦2 MIC steps, negative MIC effect: 16
[5]; 200 ug/mL
  number of strains: >2 MIC steps, negative MIC effect: 1
19 IR strains; addition of 50 mg/L cloxacillin
  additional IR strains inhibited: 6
19 IR strains; addition of 200 mg/L cloxacillin
  additional IR strains inhibited: 9
[6]
  number of strains: No impact on ertapenem MIC: 1

## C[C@@H](O)[C@H]1C(=O)N2C(C(=O)O)=C([C@H]3CCCO3)S[C@H]12 [Faropenem, faropenem]
19 IR strains; faropenem alone, up to 16 mg/L
  impact on growth of IR strains: little impact

## NC(N)=NCCC[C@H](NC(=O)[C@@H](N)Cc1ccccc1)C(=O)Nc1ccc2ccccc2c1 [PAbetaN, phenylalanine-arginine-beta-naphthylamide] (H-Phe-Arg-βNA)
Proteus IR strains
  number of strains: No impact on ertapenem MIC: 3
Enterobacter IR strains; in the presence of PAbetaN alone
  MIC with ertapenem: > 32 µg/mL
Enterobacter IR strains
  number of strains: >2 MIC steps impact on ertapenem MIC: 2
  number of strains: No impact on ertapenem MIC: 10
[1]; [9]
  number of strains with MIC with ertapenem slightly increased: 15
  number of strains with MIC with ertapenem very distinctly increased: 7
[1]; [7]
  number of strains: >2 MIC steps, positive MIC effect: 7
  number of strains: No impact on ertapenem MIC: 5
  number of strains: ≦2 MIC steps, negative MIC effect: 2
  number of strains: ≦2 MIC steps, positive MIC effect: 15
Pseudomonas IR strain; P. aeruginosa IR strain
  effect on ertapenem MIC of adding PAbetaN in addition to cloxacillin: not affected
Pseudomonas IR strain; [8]
  number of strains: No impact on ertapenem MIC: 1
[2]; 200 mg/L cloxacillin and 8 or 16 mg/L faropenem
  detection sensitivity with vs without PAbetaN: does not change
[2]; 8 or 16 mg/L faropenem with 50 or 100 mg/L cloxacillin
  detection sensitivity with vs without PAbetaN: greater
Morganella IR strains
  number of strains: No impact on ertapenem MIC: 2
[3]; [10]
  number of IR strains unimpacted: 1
  number of IR strains with MICs decreased by two additional MIC steps: 7
  number of IR strains with less significantly decreased MICs (≦2 MIC steps): 5
[3]; PAbetaN alone
  impact of PAbetaN alone on ertapenem MICs of the majority of the IR strains: no impact
[3]
  number of strains: >2 MIC steps impact on ertapenem MIC: 2
  number of strains: No impact on ertapenem MIC: 17
  number of strains: ≦2 MIC steps impact on ertapenem MIC: 0
Citrobacter IR strain
  number of strains: No impact on ertapenem MIC: 1
[4]
  number of strains: No impact on ertapenem MIC: 2
[5]; [11]
  number of strains: >2 MIC steps, positive MIC effect: 7
  number of strains: No impact on ertapenem MIC: 3
  number of strains: ≦2 MIC steps, negative MIC effect: 2
  number of strains: ≦2 MIC steps, positive MIC effect: 14
[6]
  number of strains: ≦2 MIC steps, positive MIC effect: 1

## C[C@@H](O)[C@H]1C(=O)N2C(C(=O)O)=C(S[C@@H]3CN[C@H](C(=O)Nc4cccc(C(=O)O)c4)C3)[C@H](C)[C@H]12 [ertapenem]
Enterobacter IR strains; without PAbetaN
  MIC with ertapenem: 6 µg/mL
